The values that follow come from US7648959B2, “Methods and compositions for the treatment of diseases of the eye” (Merck Patent GmbH, priority 2000, dated 2010).

Each structure is given as a SMILES string. Values joined by “and” are separate entries in the source; they are usually repeats but may differ in a detail not shown here. Equal entries are not always repeated.

This test deals with bFGF-Stimulated Corneal Angiogenesis. Description: rabbit corneal micropocket model, paralimbal intrascleral injection. To be noted: for Area of neovascularisation, MEAN / Area of neovascularisation (individual eye): single (Day 0) intrascleral injection, 100 μl, 2.0 mg/ml in PBS; for Area of neovascularisation, MEAN: mean of 12 eyes; for Area of neovascularisation (individual eye): one value per rabbit eye (R/L); for neovascularisation inhibited compared to the animal group receiving PBS only: single intrascleral injection 100 μl, 2.0 mg/ml, p<0.01. Type of test: in vivo. The protocol: (1996). In this model angiogenesis is stimulated by implantation of Hydron pellets containing an angiogenesis stimulating cytokine like, for example, fibroblast growth factor (FGF) or vascular endothelial growth factor (VEGF) into the cornea. After implantation the active compound to be tested is administered by paralimbal intrascleral injection. Effect on neovascularisation is measured after predetermined time intervals by visual examination using a microscope, photographing and computer-assisted quantification of photographs.
The effect of intrascleral application of an αvβ3 and/or αvβ5 inhibitor was examined in rabbit corneal micropocket model as described by Shaffer R. W. (see above). As an example for an αvβ3 and/or αvβ5 inhibitor (2S)-2-(2,2-dimethylpropyloxycarboxamido)-3-{3,4-dihydro-2-[N-(2-imidazolyl)carbamoylethyl]-(2S)-2H-1,4-benzoxazin-3-on-6-yl}propionic acid was used in the experiment. For induction of angiogenesis Hydron pellets containing basic fibroblast growth factor (bFGF) were used. Preparation of bFGF containing implants was performed by casting Hydron [poly(hydroxyethyl)methacrylate] in specially prepared Teflon pegs that have a 5 mm core drilled into their surfaces. Approximately 12 μl of casting material was placed into each peg and polymerized overnight in a sterile hood, then sterilized by ultraviolet irradiation.
The experiment consisted of 12 animals; in each eye of the animals one individual pellet was implanted into a surgically created “pocket” in the mid stroma of the rabbit cornea. The surgical procedure was done under sterile technique using a Wild model M691 operating microscope equipped with a beamsplitter and camera for photographically recording individual corneas. A 69 Beaver blade was used to create a 3 mm by 5 mm “pocket” to a depth of half the corneal thickness. The stroma was dissected peripherally using an spatula and the pellet implanted with its peripheral margin 2 mm from limbus. Immediately after implantation of bFGF-containing Hydron pellets 6 of the 12 animals received in each eye 100 μl of a drug solution consisting of 2.0 mg/ml (2S)-2-(2,2-dimethylpropyloxycarboxamido)-3-3,4-dihydro-2-[N-(2-imidazolyl)carbamoylethyl]-(2S)-2H-1,4-benzoxazin-3-on-6-yl}propionic acid solubilized in phosphate buffered saline (PBS) by paralimbal intrascleral injection. For comparison the same procedure was performed in the other 6 animals using PBS only. Following implantation the eyes were photographed and the area of neovascularisation measured after predetermined intervals.

On to `CC(C)(C)COC(=O)N[C@@H](Cc1ccc2c(c1)NC(=O)[C@H](CCC(=O)Nc1ncc[nH]1)O2)C(=O)O` [(2S)-2-(2,2-dimethylpropyloxycarboxamido)-3-{3,4-dihydro-2-[N-(2-imidazolyl)carbamoylethyl]-(2S)-2H-1,4-benzoxazin-3-on-6-yl}propionic acid], for which the “Area of neovascularisation, MEAN” value (5 Day Post-Implantation) came out at 8.39 mm^2 and the “Area of neovascularisation, MEAN” value (7 Day Post-Implantation) is 10.32 mm^2. The “Area of neovascularisation (individual eye)” value was 3.47 mm^2 and 26.79 mm^2 and 14.76 mm^2 and 7.70 mm^2 and 1.00 mm^2 and 0.88 mm^2 and 8.19 mm^2 and 2.26 mm^2 and 0.0 mm^2 and 7.31 mm^2 and 15.85 mm^2 and 12.45 mm^2 (5 Day Post-Implantation); 6.69 mm^2 and 27.96 mm^2 and 15.58 mm^2 and 11.32 mm^2 and 2.09 mm^2 and 1.91 mm^2 and 11.93 mm^2 and 3.51 mm^2 and 0.0 mm^2 and 11.56 mm^2 and 16.90 mm^2 and 14.40 mm^2 (7 Day Post-Implantation). The “neovascularisation inhibited compared to the animal group receiving PBS only” value (5 days post implantation) is reported as 56.5% and the “neovascularisation inhibited compared to the animal group receiving PBS only” value (7 days post implantation) was 52.3%.
